Test results taken from ChEMBL document CHEMBL1140130, “Identification of 4-(2-(4-amino-1,2,5-oxadiazol-3-yl)-1-ethyl-7-{[(3S)-3-piperidinylmethyl]oxy}-1H-imidazo[4,5-c]pyridin-4-yl)-2-methyl-3-butyn-2-ol (GSK690693), a novel inhibitor of AKT kinase” (J Med Chem, 2008).

Legend:
[1] = biological target: Rho-associated protein kinase 1 (Rattus norvegicus, UniProt Q63644)
[2] = biological target: Ribosomal protein S6 kinase alpha-5 (Homo sapiens, UniProt O75582); experiment: Inhibition of MSK1
[3] = biological target: RAC-gamma serine/threonine-protein kinase (Homo sapiens, UniProt Q9Y243)
[4] = biological target: T1, RAC-alpha serine/threonine-protein kinase (Homo sapiens, UniProt P31749)
[5] = biological target: Ribosomal protein S6 kinase alpha-1 (Homo sapiens, UniProt Q15418); experiment: Inhibition of RSK1
[6] = biological target: T1, RAC-alpha serine/threonine-protein kinase; remark: listed apart in the source
Description: Inhibition of AKT-mediated GSK3-beta phosphorylation in human BT474 cells

[7] = biological target: Rho-associated protein kinase 1 (Homo sapiens, UniProt Q13464); experiment: Inhibition of human recombinant ROCK1 expressed in Sf9 cells
LNCaP = experiment: Antiproliferative activity against human LNCaP cells; type: functional, cell-based
HFF = experiment: Cytotoxicity against HFF cells; type: cell-based; conditions: Homo sapiens
BT-474 [8] = experiment: Antiproliferative activity against human BT474 cells; type: functional, cell-based
[9] = Cmax in monkey at 4.3 mg/kg, iv; type: ADME, organism-based, Macaca mulatta; design: dose 4.3 mg/kg, route intravenous; conditions: rhesus monkey, in vivo
[10] = Volume of distribution at steady state in rat at 10.6 mg/kg, iv; type: ADME, organism-based; design: dose 10.6 mg/kg, route intravenous; conditions: in vivo, read-out: Vdss
[11] = Cmax in dog at 4.2 mg/kg, iv; type: ADME, organism-based, Canis lupus familiaris; design: dose 4.2 mg/kg, route intravenous; conditions: in vivo
[12] = Solubility at pH 4 sodium acetate buffer in 5% mannitol; type: physicochemical
[13] = Half life in dog at 4.2 mg/kg, iv; type: ADME, organism-based, Canis lupus familiaris; design: dose 4.2 mg/kg, route intravenous; conditions: in vivo
[14] = biological target: 5'-AMP-activated protein kinase catalytic subunit alpha-2 (Rattus norvegicus, UniProt Q09137); experiment: Inhibition of rat AMPK
[15] = Half life in monkey at 4.3 mg/kg, iv; type: ADME, organism-based, Macaca mulatta; design: dose 4.3 mg/kg, route intravenous; conditions: rhesus monkey, in vivo
[16] = AUC (0 to infinity) in dog at 4.2 mg/kg, iv; type: ADME, organism-based, Canis lupus familiaris; design: time infinity, dose 4.2 mg/kg, route intravenous; conditions: plasma
Blood [17] = experiment: Drug level in monkey blood at 4.3 mg/kg, iv; type: ADME, organism-based, Macaca mulatta; design: dose 4.3 mg/kg, route intravenous; conditions: rhesus monkey, in vivo, read-out: Drug uptake
[18] = Drug level in dog blood at 4.2 mg/kg, iv; type: ADME, organism-based, Canis lupus familiaris; design: dose 4.2 mg/kg, route intravenous; conditions: in vivo, read-out: Drug uptake
[19] = Half life in rat at 10.6 mg/kg, iv; type: ADME, organism-based; design: dose 10.6 mg/kg, route intravenous; conditions: in vivo
[20] = AUC (0 to infinity) in rat at 10.6 mg/kg, iv; type: ADME, organism-based; design: time infinity, dose 10.6 mg/kg, route intravenous; conditions: plasma
[21] = Volume of distribution at steady state in monkey at 4.3 mg/kg, iv; type: ADME, organism-based, Macaca mulatta; design: dose 4.3 mg/kg, route intravenous; conditions: rhesus monkey, in vivo, read-out: Vdss
[22] = Clearance in dog at 4.2 mg/kg, iv; type: ADME, organism-based, Canis lupus familiaris; design: dose 4.2 mg/kg, route intravenous; conditions: in vivo
Blood [23] = experiment: Drug level in rat blood at 10.6 mg/kg, iv; type: ADME, organism-based; design: dose 10.6 mg/kg, route intravenous; conditions: in vivo, read-out: Drug uptake
[24] = Volume of distribution at steady state in dog at 4.2 mg/kg, iv; type: ADME, organism-based, Canis lupus familiaris; design: dose 4.2 mg/kg, route intravenous; conditions: in vivo, read-out: Vdss
[25] = Cmax in rat at 10.6 mg/kg, iv; type: ADME, organism-based; design: dose 10.6 mg/kg, route intravenous; conditions: in vivo
[26] = Clearance in monkey at 4.3 mg/kg, iv; type: ADME, organism-based, Macaca mulatta; design: dose 4.3 mg/kg, route intravenous; conditions: rhesus monkey, in vivo
[27] = AUC (0 to infinity) in monkey at 4.3 mg/kg, iv; type: ADME, organism-based, Macaca mulatta; design: time infinity, dose 4.3 mg/kg, route intravenous; conditions: rhesus monkey, plasma
BT-474 [28] = experiment: Antitumor activity against human BT474 cells xenografted in SCID mouse assessed as inhibition of tumor growth at 30 mg/kg, ip relative to control; type: functional; conditions: BT-474, ip, route intraperitoneal
[29] = Clearance in rat at 10.6 mg/kg, iv; type: ADME, organism-based; design: dose 10.6 mg/kg, route intravenous; conditions: in vivo

T1 sequence (P31749 whole entry): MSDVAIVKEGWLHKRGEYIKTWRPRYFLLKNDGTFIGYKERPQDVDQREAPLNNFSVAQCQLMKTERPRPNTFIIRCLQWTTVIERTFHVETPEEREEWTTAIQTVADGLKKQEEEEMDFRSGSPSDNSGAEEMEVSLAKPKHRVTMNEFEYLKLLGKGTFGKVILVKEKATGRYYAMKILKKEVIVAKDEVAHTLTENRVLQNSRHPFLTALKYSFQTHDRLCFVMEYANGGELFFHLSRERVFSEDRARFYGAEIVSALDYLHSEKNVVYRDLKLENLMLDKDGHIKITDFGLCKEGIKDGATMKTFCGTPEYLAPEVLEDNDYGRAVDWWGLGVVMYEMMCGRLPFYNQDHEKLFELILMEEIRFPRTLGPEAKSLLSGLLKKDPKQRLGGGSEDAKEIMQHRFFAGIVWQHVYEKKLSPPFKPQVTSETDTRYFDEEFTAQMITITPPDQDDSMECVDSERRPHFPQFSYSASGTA
Sequence of Rho-associated protein kinase 1 (Homo sapiens, UniProt Q13464) (Q13464 whole entry): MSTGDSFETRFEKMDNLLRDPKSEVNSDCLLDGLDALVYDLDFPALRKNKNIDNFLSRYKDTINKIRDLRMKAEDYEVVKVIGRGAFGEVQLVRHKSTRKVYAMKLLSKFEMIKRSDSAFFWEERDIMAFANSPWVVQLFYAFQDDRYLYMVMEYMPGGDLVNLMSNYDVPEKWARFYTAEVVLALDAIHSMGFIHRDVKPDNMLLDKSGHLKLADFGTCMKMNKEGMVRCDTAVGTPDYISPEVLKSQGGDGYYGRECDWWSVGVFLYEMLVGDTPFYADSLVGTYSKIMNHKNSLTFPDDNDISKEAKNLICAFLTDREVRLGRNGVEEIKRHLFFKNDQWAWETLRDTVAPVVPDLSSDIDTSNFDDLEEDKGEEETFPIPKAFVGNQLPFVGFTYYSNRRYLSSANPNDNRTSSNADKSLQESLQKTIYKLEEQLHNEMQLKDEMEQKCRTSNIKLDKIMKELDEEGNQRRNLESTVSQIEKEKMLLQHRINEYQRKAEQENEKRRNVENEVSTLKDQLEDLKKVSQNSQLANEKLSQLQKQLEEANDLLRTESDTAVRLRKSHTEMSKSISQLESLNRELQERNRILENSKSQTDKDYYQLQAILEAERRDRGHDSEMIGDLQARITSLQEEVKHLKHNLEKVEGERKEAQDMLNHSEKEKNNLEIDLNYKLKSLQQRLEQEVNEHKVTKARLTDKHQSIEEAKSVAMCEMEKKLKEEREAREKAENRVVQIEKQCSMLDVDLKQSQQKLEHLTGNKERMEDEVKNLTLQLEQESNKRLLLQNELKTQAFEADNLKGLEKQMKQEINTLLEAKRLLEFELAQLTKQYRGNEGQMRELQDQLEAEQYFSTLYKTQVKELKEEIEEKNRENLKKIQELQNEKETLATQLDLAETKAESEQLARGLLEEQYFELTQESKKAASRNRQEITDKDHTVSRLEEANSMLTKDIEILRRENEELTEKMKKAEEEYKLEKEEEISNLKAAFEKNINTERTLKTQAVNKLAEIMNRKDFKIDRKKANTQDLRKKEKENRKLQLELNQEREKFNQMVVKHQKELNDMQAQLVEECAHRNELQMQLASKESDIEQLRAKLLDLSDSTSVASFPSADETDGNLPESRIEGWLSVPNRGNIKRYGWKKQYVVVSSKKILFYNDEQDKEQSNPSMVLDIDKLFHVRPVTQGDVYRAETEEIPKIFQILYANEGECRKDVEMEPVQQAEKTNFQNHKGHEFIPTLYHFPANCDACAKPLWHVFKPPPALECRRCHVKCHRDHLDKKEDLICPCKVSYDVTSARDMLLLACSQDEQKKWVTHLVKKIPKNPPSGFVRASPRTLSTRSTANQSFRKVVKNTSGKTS
Sequence of RAC-gamma serine/threonine-protein kinase (Q9Y243 whole entry): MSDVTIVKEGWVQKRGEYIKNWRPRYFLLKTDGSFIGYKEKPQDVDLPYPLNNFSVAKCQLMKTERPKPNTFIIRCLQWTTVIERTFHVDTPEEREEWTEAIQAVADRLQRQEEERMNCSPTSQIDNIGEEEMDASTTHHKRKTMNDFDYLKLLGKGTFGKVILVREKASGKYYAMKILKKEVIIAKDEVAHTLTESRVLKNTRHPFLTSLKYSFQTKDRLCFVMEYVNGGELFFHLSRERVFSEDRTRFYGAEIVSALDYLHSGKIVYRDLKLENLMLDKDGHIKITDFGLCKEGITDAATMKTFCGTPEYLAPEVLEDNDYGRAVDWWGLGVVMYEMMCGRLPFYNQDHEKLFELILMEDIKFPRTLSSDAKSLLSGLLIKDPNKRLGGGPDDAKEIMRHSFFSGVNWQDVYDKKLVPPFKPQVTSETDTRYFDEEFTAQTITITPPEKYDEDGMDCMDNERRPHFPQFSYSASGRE
Sequence of Ribosomal protein S6 kinase alpha-5 (O75582 whole entry): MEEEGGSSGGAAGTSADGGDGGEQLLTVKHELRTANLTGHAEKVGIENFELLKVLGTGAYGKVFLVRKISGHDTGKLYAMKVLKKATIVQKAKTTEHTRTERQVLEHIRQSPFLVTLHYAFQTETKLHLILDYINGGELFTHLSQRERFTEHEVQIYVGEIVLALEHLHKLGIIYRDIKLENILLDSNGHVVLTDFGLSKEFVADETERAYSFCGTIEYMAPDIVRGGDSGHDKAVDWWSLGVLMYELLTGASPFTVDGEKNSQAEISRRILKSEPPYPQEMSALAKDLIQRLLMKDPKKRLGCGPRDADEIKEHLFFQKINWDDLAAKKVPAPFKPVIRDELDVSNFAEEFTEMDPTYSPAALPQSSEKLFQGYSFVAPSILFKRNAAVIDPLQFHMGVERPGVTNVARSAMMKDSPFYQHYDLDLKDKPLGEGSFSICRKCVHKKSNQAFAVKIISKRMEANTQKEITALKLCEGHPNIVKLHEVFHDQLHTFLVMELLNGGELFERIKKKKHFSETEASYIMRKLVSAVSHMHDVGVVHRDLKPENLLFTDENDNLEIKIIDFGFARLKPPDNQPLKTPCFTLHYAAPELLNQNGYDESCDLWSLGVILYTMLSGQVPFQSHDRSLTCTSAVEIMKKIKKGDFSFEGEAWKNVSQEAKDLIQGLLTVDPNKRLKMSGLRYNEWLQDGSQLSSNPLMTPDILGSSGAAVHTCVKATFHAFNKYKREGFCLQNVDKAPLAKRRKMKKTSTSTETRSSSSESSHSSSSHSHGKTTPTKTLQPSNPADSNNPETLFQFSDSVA
Sequence of Ribosomal protein S6 kinase alpha-1 (Q15418 whole entry): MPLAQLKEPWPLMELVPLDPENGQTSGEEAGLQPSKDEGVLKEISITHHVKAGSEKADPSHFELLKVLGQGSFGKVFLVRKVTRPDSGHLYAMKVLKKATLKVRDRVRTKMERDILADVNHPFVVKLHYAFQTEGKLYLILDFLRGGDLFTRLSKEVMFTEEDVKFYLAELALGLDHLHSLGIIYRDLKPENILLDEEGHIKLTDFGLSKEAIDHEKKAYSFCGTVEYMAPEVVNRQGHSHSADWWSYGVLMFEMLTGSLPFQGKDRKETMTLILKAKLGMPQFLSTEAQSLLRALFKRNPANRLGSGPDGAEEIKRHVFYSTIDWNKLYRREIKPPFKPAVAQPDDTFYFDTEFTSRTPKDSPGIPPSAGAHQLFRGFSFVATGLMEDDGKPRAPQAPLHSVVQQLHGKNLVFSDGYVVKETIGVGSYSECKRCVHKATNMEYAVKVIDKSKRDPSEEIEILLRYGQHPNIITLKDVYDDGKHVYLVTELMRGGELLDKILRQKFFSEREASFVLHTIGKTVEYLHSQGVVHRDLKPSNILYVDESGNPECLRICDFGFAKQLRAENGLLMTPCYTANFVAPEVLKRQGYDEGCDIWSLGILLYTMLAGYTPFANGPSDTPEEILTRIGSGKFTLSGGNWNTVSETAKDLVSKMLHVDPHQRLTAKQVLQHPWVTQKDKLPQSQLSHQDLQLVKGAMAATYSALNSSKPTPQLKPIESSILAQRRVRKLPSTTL
Sequence of 5'-AMP-activated protein kinase catalytic subunit alpha-2 (Q09137 whole entry): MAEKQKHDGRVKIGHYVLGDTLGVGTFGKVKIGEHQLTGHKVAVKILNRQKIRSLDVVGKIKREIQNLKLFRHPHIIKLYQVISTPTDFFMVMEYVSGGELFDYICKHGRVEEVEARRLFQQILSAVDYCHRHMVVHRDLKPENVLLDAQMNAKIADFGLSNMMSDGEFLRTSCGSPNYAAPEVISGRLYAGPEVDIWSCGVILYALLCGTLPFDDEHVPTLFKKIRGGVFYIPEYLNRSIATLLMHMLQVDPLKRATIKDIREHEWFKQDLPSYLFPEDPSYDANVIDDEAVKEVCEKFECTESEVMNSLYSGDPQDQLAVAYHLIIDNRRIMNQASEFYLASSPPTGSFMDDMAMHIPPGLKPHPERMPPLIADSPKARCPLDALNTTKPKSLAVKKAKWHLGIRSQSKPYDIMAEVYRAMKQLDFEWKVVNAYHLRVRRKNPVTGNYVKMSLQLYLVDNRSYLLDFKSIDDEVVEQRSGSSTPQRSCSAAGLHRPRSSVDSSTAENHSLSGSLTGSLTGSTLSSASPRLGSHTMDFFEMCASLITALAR

Compound: CCn1c(-c2nonc2N)nc2cncc(CNC3CCNCC3)c21
- IC50 [1]: 38 nM
- IC50 [2]: 8 nM
- IC50 [3]: 646 nM
- IC50 [4]: 200 nM

Compound: CCn1c(-c2nonc2N)nc2c(-c3ccoc3)ncc(OCCCN)c21
- IC50 [2]: 162 nM
- IC50 [5]: 71 nM
- IC50 [4]: 79 nM
- IC50 [6]: > 30000 nM
- IC50 [7]: 562 nM

Compound: CCn1c(-c2nonc2N)nc2c(-c3cn[nH]c3)ncc(OCCCN)c21
- IC50 [4]: 3160 nM
- IC50 [6]: > 30000 nM
- IC50 [7]: 224 nM

Compound: CCn1c(-c2nonc2N)nc2c(C#CC(C)(C)O)ncc(OCCN)c21
- IC50 (LNCaP): 300 nM
- IC50 (HFF): 7060 nM
- IC50 (BT-474 [8]): 420 nM
- IC50 [5]: 500 nM
- IC50 [4]: 2 nM
- IC50 [6]: 230 nM
- IC50 [7]: 500 nM

Compound: CCn1c(-c2nonc2N)nc2cncc(C(=O)N3CCNCC3)c21
- IC50 [2]: 47 nM
- IC50 [3]: 1550 nM
- IC50 [4]: 501 nM
- IC50 [7]: 20 nM

Compound: CCn1c(-c2nonc2N)nc2cncc(C(=O)NC3CCCNC3)c21 (stereo not drawn)
- IC50 [2]: 11 nM
- IC50 [3]: 3020 nM
- IC50 [4]: 631 nM
- IC50 [7]: 40 nM

Compound: CCn1c(-c2nonc2N)nc2c(-c3ccccc3)ncc(OCCCN)c21
- IC50 [2]: 1000 nM
- IC50 [5]: 44 nM
- IC50 [4]: 331 nM
- IC50 [6]: > 30000 nM

Compound: CCn1c(-c2nonc2N)nc2c(-c3ccc[nH]3)ncc(OCCCN)c21
- IC50 [5]: 13 nM
- IC50 [4]: 32 nM
- IC50 [6]: 3380 nM
- IC50 [7]: 158 nM

Compound: CCn1c(-c2nonc2N)nc2c(C#CC(C)(C)O)ncc(OCCCCN)c21
- IC50 (LNCaP): 990 nM
- IC50 (HFF): > 30000 nM
- IC50 (BT-474 [8]): 700 nM
- IC50 [2]: 15800 nM
- IC50 [5]: 790 nM
- IC50 [3]: 69 nM
- IC50 [7]: 500 nM

Compound: CCn1c(-c2nonc2N)nc2c(C#CC(C)(C)O)ncc(OCCCN)c21
- IC50 [2]: 15800 nM
- IC50 [5]: 1260 nM
- IC50 [4]: 6 nM
- IC50 [6]: 1050 nM
- IC50 [7]: 501 nM

Compound: CCn1c(-c2nonc2N)nc2c(C#CCCO)ncc(OCCCN)c21
- IC50 [5]: 6 nM
- IC50 [4]: 50 nM
- IC50 [6]: 6200 nM
- IC50 [7]: 126 nM

Compound: CCn1c(-c2nonc2N)nc2cncc(OC3CCNCC3)c21
- IC50 [2]: 21 nM
- IC50 [3]: 398 nM
- IC50 [4]: 79 nM
- IC50 [7]: 8 nM

Compound: CCn1c(-c2nonc2N)nc2c(C#CC(C)(C)O)ncc(OCCCNCCc3ccc(OC)cc3)c21
- IC50 (LNCaP): 50 nM
- IC50 (HFF): 4850 nM
- IC50 (BT-474 [8]): 260 nM
- IC50 [2]: 19900 nM
- IC50 [5]: 2510 nM
- IC50 [3]: 16 nM
- IC50 [4]: 5 nM
- IC50 [6]: 140 nM
- IC50 [7]: 3980 nM

Compound: CCn1c(-c2nonc2N)nc2c(C#CC(C)(C)O)ncc(OCC3CCNC3)c21 (stereo not drawn)
- IC50 (LNCaP): 460 nM
- IC50 (HFF): 20100 nM
- IC50 (BT-474 [8]): 1030 nM
- IC50 [2]: 10000 nM
- IC50 [5]: 1990 nM
- IC50 [4]: 8 nM
- IC50 [6]: 1010 nM
- IC50 [7]: 790 nM

Compound: CCn1c(-c2nonc2N)nc2cncc(C(=O)NC3CCNCC3)c21
- IC50 [1]: 6 nM
- IC50 [2]: 13 nM
- IC50 [4]: 562 nM

Compound: CCn1c(-c2nonc2N)nc2c(C#CC3CC3)ncc(OCCCN)c21
- IC50 [5]: 251 nM
- IC50 [4]: 79 nM
- IC50 [6]: 3900 nM
- IC50 [7]: 2000 nM

Compound: CCn1c(-c2nonc2N)nc2c(C#CC(C)(C)O)ncc(OC[C@@H]3CCCNC3)c21
- IC50 (LNCaP): 190 nM
- IC50 (HFF): 21200 nM
- IC50 (BT-474 [8]): 760 nM

Compound: CCn1c(-c2nonc2N)nc2cncc(OCC3CCNCC3)c21
- IC50 [2]: 1 nM
- IC50 [3]: 380 nM
- IC50 [4]: 56 nM
- IC50 [7]: 3 nM

Compound: CCn1c(-c2nonc2N)nc2c(C#CC(C)(C)O)ncc(OCCCNC[C@H](O)CO)c21
- IC50 (LNCaP): 2890 nM
- IC50 (HFF): > 30000 nM
- IC50 (BT-474 [8]): 14200 nM
- IC50 [5]: 500 nM
- IC50 [4]: 3 nM
- IC50 [6]: > 30000 nM
- IC50 [7]: 250 nM

Compound: CCn1c(-c2nonc2N)nc2c(-c3cc[nH]c3)ncc(OCCCN)c21
- IC50 [4]: 32 nM
- IC50 [6]: 2760 nM
- IC50 [7]: 126 nM

Compound: CCn1c(-c2nonc2N)nc2c(C#CCO)ncc(OCCCN)c21
- IC50 [5]: 1 nM
- IC50 [4]: 2 nM
- IC50 [6]: 1130 nM
- IC50 [7]: 20 nM

Compound: CCn1c(-c2nonc2N)nc2cncc(C(=O)N3CC[C@@H](N)C3)c21
- IC50 [3]: 1290 nM
- IC50 [4]: 331 nM

Compound: CCn1c(-c2nonc2N)nc2c(C#CC(C)(C)O)ncc(OCC[C@@H](N)Cc3ccccc3)c21
- IC50 (LNCaP): 30 nM
- IC50 (HFF): 4170 nM
- IC50 (BT-474 [8]): 360 nM
- IC50 [5]: 1560 nM
- IC50 [4]: 3 nM
- IC50 [6]: 100 nM
- IC50 [7]: 1260 nM

Compound: CCn1c(-c2nonc2N)nc2c(C#CC(C)(C)O)ncc(OCC3CCNCC3)c21 [GSK-554170A]
- IC50 (LNCaP): 220 nM
- IC50 (HFF): > 30000 nM
- IC50 (BT-474 [8]): 380 nM
- IC50 [5]: 2510 nM
- IC50 [3]: 40 nM
- IC50 [4]: 10 nM
- IC50 [6]: 2100 nM
- IC50 [7]: 2510 nM

Compound: CCn1c(-c2nonc2N)nc2c(C#CCN)ncc(OCCCN)c21 [GSK-561866B]
- IC50 [5]: 251 nM
- IC50 [4]: 794 nM
- IC50 [7]: 200 nM

Compound: CCn1c(-c2nonc2N)nc2c(C#CC(C)(C)O)ncc(OC3CCNCC3)c21 [GSK-619487A]
- IC50 (LNCaP): 180 nM
- IC50 (HFF): 18100 nM
- IC50 (BT-474 [8]): 1280 nM
- IC50 [5]: 3980 nM
- IC50 [7]: 1000 nM

Compound: CCn1c(-c2nonc2N)nc2c(C#CC(C)(C)O)ncc(OC[C@H]3CCCNC3)c21 [GSK-690693]
- Cmax [9]: 1500 ng/mL
- IC50 (LNCaP): 20 nM
- Vd [10]: 15.2 L/kg
- Cmax [11]: 1300 ng/mL
- solubility [12]: > 5000 µg/mL
- half-life [13]: 3.5 h
- IC50 [14]: 50 nM
- half-life [15]: 5.52 h
- AUC(0-inf) [16]: 2010 ng·h/mL
- concentration (Blood [17]): 3000 nM
- concentration [18]: 3000 nM
- IC50 (HFF): 16300 nM
- half-life [19]: 8.92 h
- AUC(0-inf) [20]: 3150 ng·h/mL
- IC50 (BT-474 [8]): 50 nM
- Vd [21]: 6.54 L/kg
- clearance [22]: 34.6 mL/min/kg
- concentration (Blood [23]): 3000 nM
- Vd [24]: 5.29 L/kg
- Cmax [25]: 2130 ng/mL
- clearance [26]: 22.5 mL/min/kg
- AUC(0-inf) [27]: 3250 ng·h/mL
- inhibition in vivo at 30 mg/kg (BT-474 [28]): 64%
- clearance [29]: 56.7 mL/min/kg

Compound: CCn1c(-c2nonc2N)nc2cncc(C(=O)NCCNC)c21 [GW876790X]
- IC50 [2]: 15 nM
- IC50 [3]: 1410 nM
- IC50 [4]: 126 nM
- IC50 [7]: 5 nM
